The text below walks through data of article PMC9177823 (Journal of molecular biology, 2022).

The target in this test is MelBSt; Salmonella typhimurium melibiose permease (Salmonella enterica, UniProt P30878). Briefly: CD thermal denaturation at […] nm, purified in DDM. The conditions noted are these: 50 mM melibiose, 100 mM LiCl, 20 mM NaPi pH 7.5, 10% glycerol, 0.01% DDM. The test is classed as binding.
MelBSt; Salmonella typhimurium melibiose permease, sequence (P30878 whole entry): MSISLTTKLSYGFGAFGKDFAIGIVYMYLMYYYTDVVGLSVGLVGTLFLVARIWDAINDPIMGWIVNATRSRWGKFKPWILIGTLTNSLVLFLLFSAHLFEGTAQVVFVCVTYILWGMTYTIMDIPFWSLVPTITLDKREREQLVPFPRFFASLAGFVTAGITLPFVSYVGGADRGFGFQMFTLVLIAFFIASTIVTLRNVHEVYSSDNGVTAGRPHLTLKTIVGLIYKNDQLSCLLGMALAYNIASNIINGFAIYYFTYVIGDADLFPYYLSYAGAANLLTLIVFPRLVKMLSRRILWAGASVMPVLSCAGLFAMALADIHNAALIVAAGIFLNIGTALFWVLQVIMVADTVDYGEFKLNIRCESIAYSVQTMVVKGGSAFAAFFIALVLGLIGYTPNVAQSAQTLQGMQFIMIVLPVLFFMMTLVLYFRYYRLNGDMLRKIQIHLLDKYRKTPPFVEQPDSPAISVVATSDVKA

Molecule `OC[C@H]1O[C@H](OC[C@H]2OC(O)[C@H](O)[C@@H](O)[C@@H]2O)[C@H](O)[C@@H](O)[C@H]1O` (stereo partly shown) [melibiose] displayed a WT of 63.87 ± 0.04 °C.
